Reference: patent publication US8206983B2, “In vitro methods for the induction and maintenance of plant cell lines as single suspension cells with intact cell walls” (Dow AgroSciences, LLC., priority 2006, dated 2012)

Columns and labels:
[1] = test system: maize suspension; test: Single cell production from chlorophyllous maize cell cultures; type: cell-based
Source text: The maize photoautotrophi cultures were initiated and maintained in 7 day culture cycles (Jayakumar et. al. 2005). […] The maize suspension units are tightly packed into hard cell aggregates when compared to the dicot cells analyzed.

[2] = test system: Eragrostis curvula; conditions: seeds treated with 0.05% colchicine, tetraploids; cited from earlier work
[3] = test system: BY2 suspension cells; test: Effects of colchicine on growth and cell separation of BY2 suspension cells; type: cell-based, tobacco
Source text: BY2 suspension-cultured cells were obtained from Japan tobacco and maintained in LSBY2 medium in a 7 day cycle. Jimsonweed suspension and Pettite Havana tobacco suspensions were initiated from callus initiated at DAS and Xanthi suspensions were procured as a sample from Professor Jack Widholm from UIUC, IL. JT-NT1 suspension cells, obtained from Washington University that are maintained in NT1B medium in 7 day cycle were used only for the pectin degradation enzyme study to separate the cells into single cells. The cells were cultured in shake flasks at 25-28° C. in dark on orbital shakers at 150 rpm. […] Stock concentrations of both the tubulin polymerization inhibitors used in this investigation were dissolved in DMSO to prepare a 0.5 M stock solution. The concentration tested for the pectinase and pectolyase enzymes were in the range of 0.0005% to 0.005%. The tobacco suspension cell lines NT-1 and BY-2, for example, are suitable for the practice of the present invention. BY-2 cells are commercially available and are available according to Nagata et al, for example (Nagata, T., Nemoto, Y., and Hasezawa, S. [1992], Tobacco BY-2 cell line as the “HeLa” cell in the cell biology of higher plants. Int. Rev. Cytol. 132: 1-30). NT-1 cells were originally developed from Nicotiana tabacum L. cv. bright yellow 2. The NT-1 cell line is widely used and readily available; though, any tobacco suspension cell line is consistent with the practice of the invention. It is worth noting that the origins of the NT-1 cell line are unclear. Moreover, the cell line appears variable and is prone to change in response to culture conditions. NT-1 cells suitable for use in the examples below are available from the American Type Culture Collection under accession number ATCC No. 74840. See also U.S. Pat. No. 6,140,075.
(§1) Cell expansion and separation were observed by light microscopy (with Nomarski and dark field optics). Spherical cells and single cells were counted by using a hemacytometer to determine the degree of cell expansion and separation, respectively. Cell numbers in aggregates were determined by treating with 5% (wt/vol) chromium trioxide for 16 hr and counting cells (Henshaw et. al, 1966). Cell viability was determined by staining cells (Yokoyama et. al, 1997) with fluorescein diacetate (FDA) and propidium iodide (PI) using a fluorescent microscope (Zeiss Photomicroscope). In order to determine the presence of the cell wall in this single cell cultures optical brightener was used. Calcafluor obtained from Sigma, which is a specific fluorescent dye for cellulose is used in this study, and the cellulose-Calcafluor complexing was observed by fluorescence microscopy (Zeiss Photomicroscope). […]

[4] = test system: JM cells; test: Effects of colchicine on growth and cell separation of Jimson weed suspension cells; type: cell-based
Source text: BY2 suspension-cultured cells were obtained from Japan tobacco and maintained in LSBY2 medium in a 7 day cycle. Jimsonweed suspension and Pettite Havana tobacco suspensions were initiated from callus initiated at DAS and Xanthi suspensions were procured as a sample from Professor Jack Widholm from UIUC, IL. JT-NT1 suspension cells, obtained from Washington University that are maintained in NT1B medium in 7 day cycle were used only for the pectin degradation enzyme study to separate the cells into single cells. The cells were cultured in shake flasks at 25-28° C. in dark on orbital shakers at 150 rpm. […] Stock concentrations of both the tubulin polymerization inhibitors used in this investigation were dissolved in DMSO to prepare a 0.5 M stock solution. The concentration tested for the pectinase and pectolyase enzymes were in the range of 0.0005% to 0.005%. The tobacco suspension cell lines NT-1 and BY-2, for example, are suitable for the practice of the present invention. […] The NT-1 cell line is widely used and readily available; though, any tobacco suspension cell line is consistent with the practice of the invention. […]
as §1, with “In order to determine the presence of the cell wall in this single cell cultures optical brightener was used.” left out

[5] = test system: Tobacco BY2 suspension; test: BY2 single cell production with diphenylpyrazole; type: cell-based
Method: Production of GFP expressing single cells. Single cells were produced by adding 1 uM concentration of the compound DDP (diphenylpyrazole) during the initiation of the 7 d culture cycle in the LSBY2-Gly-B15 medium along with the addition of 0.5 ml Pack Cell Volume (PCV) of GFP expressing suspension aggregates at the stationary phase. Alternately, a 25-ml of suspension aggregates were transferred to a 25-ml of fresh LSBY2-Gly-B15 suspension medium by adding 50 ul of […] diphenylpyrazole stock solution dissolved in DMSO to provide a 1 uM final concentration in the suspension. Thus single cells could be produced in a much shorter cycle of only 3.5 days. The LSBY215 medium always contain 15 mg/l glufosinate ammonium for selection
Initiation of single cells in preparation for plastid transformation. Four milliliters of Tobacco BY2 suspension (at the stationary phase growth maintained on a 7-d cycle) was added to 26 mL of fresh medium that composed of either Medium A [LS salts (PhytoTechnology Laboratories, L689), 120 g/L sucrose, 1 mg/L nicotinic acid, 1 mg/L pyridoxine HCl, 10 mg/L thiamine HCl, and 20 nM diphenylpyrazole (DPP)] or Medium B [LS salts, 120 g/L sucrose, 1 mg/L nicotinic acid, 1 mg/L pyridoxine HCl, 10 mg/L thiamine HCl, 2.5 mg/L benzylaminopurine (BAP) and 20 nM DPP] contained in a 125 mL shake flask with a foam stopper. […]

Row | Compound | concentration at which active in releasing single cells [1] | polymorphic percentage [2] [%] | single suspension cells ([3]; 1 mM, 7 days) | amount of cells compared with control cultures ([3]; 1 mM, after 7 days) | suspension cells seen as single intact cells ([3]; 7 days in 1 mM, then sub-cultured to colchicine-free medium) [%] | cell viability (FDA and PI) ([3]; BY2-Variant, 1 mM, 7 d) | cell growth ([4]; 0.5 mM) | cell viability (FDA and PI) ([4]; 1 mM, 7 d) | single suspension cells ([4]; 1 mM, 7 days) | single cell production ([5]; 20 nM, Medium A and Medium B, 7 days) | cells with single nucleus with one or two nucleoli ([5]; 1 uM, 3.5 days of culture, LSBY2 Glycerol medium) [%]
1 | COc1cc2c(c(OC)c1OC)-c1ccc(OC)c(=O)cc1[C@@H](NC(C)=O)CC2 [Colchicine] | above 0.5 mM | 1.09 | high degree of single suspension cells | about equal amounts | ~90 | high viability | drastically affected | high viability | high degree of single suspension cells | – | –
2 | CCOC(=O)COc1nn(-c2ccccc2)c(-c2ccccc2)c1Cl [DAS-PMTI-1] | – | – | – | – | – | – | – | – | – | produced single cells | 90
